The results in this text go back to publication PMC3916391 (PLoS Pathogens, 2014).

Where two headings read alike, the source gives them in different places.

This assay deals with T1, pyocin L1 (Pseudomonas aeruginosa, UniProt T2LG16).
T1 construct: full length, 256 residues, 28413 Da; expressed in E. coli BL21(DE3)pLysS (pETPyoL1); monomer
T1 sequence (T2LG16 1-256): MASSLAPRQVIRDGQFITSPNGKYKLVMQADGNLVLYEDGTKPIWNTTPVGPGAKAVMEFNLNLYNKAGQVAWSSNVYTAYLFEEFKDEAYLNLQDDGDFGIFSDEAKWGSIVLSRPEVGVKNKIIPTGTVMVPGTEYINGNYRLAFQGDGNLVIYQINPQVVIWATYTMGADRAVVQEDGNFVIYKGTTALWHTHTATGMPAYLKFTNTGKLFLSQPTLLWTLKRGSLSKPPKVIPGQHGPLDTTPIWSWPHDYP
In kind it is binding.

Regarding `C[C@H]1OC(O)[C@@H](O)[C@@H](O)[C@@H]1O` (stereo partly drawn) [D-rhamnose], the Kd (read-out: apparent Kd) lay in the range of 5 to 10 mM. Regarding `OC[C@H]1OC(O)[C@@H](O)[C@@H](O)[C@@H]1O` (stereo partly drawn) [D-mannose], the Kd (read-out: Kd) is over 50 mM.
